Data reported in patent US9340538B2, “Dihydropyrimidine compounds and their application in pharmaceuticals” (SUNSHINE LAKE PHARMA CO., LTD., priority 2013, dated 2016).
Where two headings read alike, the source gives them in different places.

Key:
HBV = test: In-vitro anti-HBV activity in stable HBV-producing cell line (HepG2.2.15), HBV DNA in culture fluid by qPCR; type: cell-based; conditions: Hepatitis B virus, 168 h; 500 nmol final concentration, HepG2.2.15 cells, HBV DNA in culture media on day 7 post seeding, vs DMSO control; read-out: HBV (% Inh.) (500 nmol)
Description: In-Vitro Anti-HBV Activity of Compounds in Stable HBV-Producing Cell Line (HepG2.2.15)
HBV DNA contents in cell culture fluid were detected by the qPCR-based assay and percents of HBV inhibition by compounds (% Inh) were calculated. Specific procedures are as follows:
HepG2.2.15 cells were seeded into each well of 96-well plates, 40,000 cells per well. Cells were treated with cell culture medium containing compounds 24 hours after cell seeding. Each compound to detected percent inhibition was in duplicate and the final concentration of each compound was 500 nmol in each well. The compound-containing mediums were refreshed on day 4 post cell seeding. Culture media were collected from the HepG2.2.15 plates on day 7 post cell seeding followed by HBV DNA extraction.
HBV DNA extraction: using QIAamp 96 DNA Blood Kit (QIAGEN 51161).
PCR for quantification: PCR mix was prepared according to PCR system; PCR mix was dispensed to 384-well optical reaction plates (special for quantification); The standard diluted proportionally was added; The sample was added; The plates were sealed with optical adhesive film; PCR system was performed according to programs.
Percent of HBV inhibition of DNA replication by compound was calculated using the following equation: % Inh.=[1-HBV DNA quantity of sample/HBV DNA quantity of DMSO control]*100. II. Assay Results

[1] = Test compounds' PK assay in ICR mice; type: in vivo; conditions: mouse, plasma; for AUC(0-t): AUC in 0-24 hours; for AUC(0-inf): AUC in 0 hour to infinite time; for Vd: read-out: Vss; for bioavailability: read-out: F (absolute bioavailability)
Description: The test compounds were poured into ICR mice stomach through mouth with 10 mg/kg or administered 2 mg/kg or 10 mg/kg to ICR mice by tail-intravenous injection. Blood sample of orbital vein was taken at 0.083, 0.25, 0.5, 1, 2, 4, 6, 8 and 24 hours after administration, and collected in anticoagulation tube added with EDTA-K2. The test compounds were extracted from plasma samples and chromatographed on a tandem mass spectrometer. Quantitation was performed using multiple reaction monitoring (MRM). Pharmacokinetic parameters were calculated using WinNonlin 6.1 software with non compartment model.

Compound | inhibition at 0.5 µM (HBV) | clearance ([1]; iv, 10 mg/kg) | half-life ([1]; iv, 10 mg/kg) | AUC(0-t) ([1]; iv, 10 mg/kg) | AUC(0-inf) ([1]; iv, 10 mg/kg) | Vd ([1]; iv, 10 mg/kg) | Cmax ([1]; po, 10 mg/kg) | Tmax ([1]; po, 10 mg/kg) | half-life ([1]; po, 10 mg/kg) | AUC(0-t) ([1]; po, 10 mg/kg) | AUC(0-inf) ([1]; po, 10 mg/kg) | bioavailability ([1]; po, 10 mg/kg) | Cmax ([1]; iv, 2 mg/kg) | Tmax ([1]; iv, 2 mg/kg) | clearance ([1]; iv, 2 mg/kg) | half-life ([1]; iv, 2 mg/kg) | AUC(0-t) ([1]; iv, 2 mg/kg) | AUC(0-inf) ([1]; iv, 2 mg/kg) | Vd ([1]; iv, 2 mg/kg)
CCOC(=O)C1=C(CN2CCOC(CC(=O)O)C2)NC(c2nccs2)=NC1c1ccc(F)cc1Br (stereo not drawn) [Example 74, 2-(4-((6-(2-bromo-4-fluorophenyl)-5-(ethoxycarbonyl)-2-(thiazol-2-yl)-3,6-dihydropyrimidin-4-yl)methyl)morpholin-2-yl)acetic acid] | 91.7% | 15.5 mL/min/kg | 1.02 h | 10600 ng·h/mL | 11200 ng·h/mL | 0.82 L/kg | 7330 ng/mL | 0.25 h | 1.18 h | 7890 ng·h/mL | 8160 ng·h/mL | 74.2% |  |  |  |  |  |  | 
CCOC(=O)C1=C(CN2CCOC(CCC(=O)O)C2)NC(c2nccs2)=NC1c1ccc(F)cc1Br (stereo not drawn) [Example 129, 3-(4-((6-(2-bromo-4-fluorophenyl)-5-(ethoxycarbonyl)-2-(thiazol-2-yl)-3,6-dihydropyrimidin-4-yl)methyl)morpholin-2-yl)propanoic acid] | 92% |  |  |  |  |  | 8610 ng/mL | 0.08 h | 6.62 h | 5330 ng·h/mL | 5350 ng·h/mL | 65.2% | 3860 ng/mL | 0.08 h | 20.3 mL/min/kg | 2.42 h | 1630 ng·h/mL | 1640 ng·h/mL | 0.9 L/kg
CCOC(=O)C1=C(CN2CCOCC2C(=O)NC)NC(c2nccs2)=NC1c1ccc(F)cc1Br (stereo not drawn) [Example 136, Ethyl 4-(2-bromo-4-fluorophenyl)-6-((3-(methylcarbamoyl)morpholino)methyl)-2-(thiazol-2-yl)-1,4-dihydropyrimidine-5-carboxylate] | 95.8% |  |  |  |  |  |  |  |  |  |  |  |  |  |  |  |  |  | 
